# Earlier results in patent US20150030707A1, “Rhus Coriaria L. Extract For Use In The Treatment Of Hyperhidrosis” (BIOMEDICAL RESEARCH S.R.L., priority 2012, published 2015).
# Settings: in vivo
substance,measurement,value
botulinum toxin,duration of efficacy of the injections,5-6 months
